From ChEMBL document CHEMBL3351796, “Discovery of potent and selective sirtuin 2 (SIRT2) inhibitors using a fragment-based approach” (J Med Chem, 2014)

Legend:
[1] = target: T1, NAD-dependent protein deacetylase sirtuin-1 (Homo sapiens) (UniProt Q96EB6); test: Inhibition of full length human SIRT1 expressed in Escherichia coli BL21 (DE3) cells at 100 uM using fluorogenic 7-amino-4-methylcoumarin (AMC)-labeled peptide by fluorescence assay
T1 sequence (whole entry): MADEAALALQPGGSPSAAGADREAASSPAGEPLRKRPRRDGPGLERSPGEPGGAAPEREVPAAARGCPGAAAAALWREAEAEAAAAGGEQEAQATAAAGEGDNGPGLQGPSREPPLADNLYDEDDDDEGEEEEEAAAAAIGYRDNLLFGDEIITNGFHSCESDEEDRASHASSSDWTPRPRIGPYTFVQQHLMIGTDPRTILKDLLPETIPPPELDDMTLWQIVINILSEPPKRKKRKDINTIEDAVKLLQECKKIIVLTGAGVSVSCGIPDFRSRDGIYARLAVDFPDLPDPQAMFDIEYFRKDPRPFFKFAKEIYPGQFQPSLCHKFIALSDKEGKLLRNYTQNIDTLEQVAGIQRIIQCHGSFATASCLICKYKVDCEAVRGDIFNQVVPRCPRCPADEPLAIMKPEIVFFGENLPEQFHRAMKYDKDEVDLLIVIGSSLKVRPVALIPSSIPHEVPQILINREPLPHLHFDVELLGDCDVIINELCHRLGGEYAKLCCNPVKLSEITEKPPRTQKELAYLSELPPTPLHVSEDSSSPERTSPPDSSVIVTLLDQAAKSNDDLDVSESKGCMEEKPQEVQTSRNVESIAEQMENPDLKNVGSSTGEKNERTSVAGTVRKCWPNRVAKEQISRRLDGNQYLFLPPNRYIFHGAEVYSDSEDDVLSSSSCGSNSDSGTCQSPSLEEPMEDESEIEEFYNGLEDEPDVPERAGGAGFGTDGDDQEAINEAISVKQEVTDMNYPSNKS

[2] = target: T2, NAD-dependent protein deacetylase sirtuin-3, mitochondrial (Homo sapiens) (UniProt Q9NTG7); settings: BL21-DE3, 100 uM
T2 sequence (whole entry): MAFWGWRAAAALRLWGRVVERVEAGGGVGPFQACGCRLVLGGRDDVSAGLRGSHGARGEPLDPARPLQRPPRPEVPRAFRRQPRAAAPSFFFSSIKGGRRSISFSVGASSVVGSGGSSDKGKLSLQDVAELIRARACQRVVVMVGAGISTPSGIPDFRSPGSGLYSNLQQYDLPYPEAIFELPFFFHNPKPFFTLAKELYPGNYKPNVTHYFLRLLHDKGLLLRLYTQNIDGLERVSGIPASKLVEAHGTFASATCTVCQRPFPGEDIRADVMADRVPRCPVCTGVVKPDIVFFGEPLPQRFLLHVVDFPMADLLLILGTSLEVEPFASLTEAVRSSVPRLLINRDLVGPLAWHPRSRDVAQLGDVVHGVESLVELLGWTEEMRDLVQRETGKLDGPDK

[3] = target: T3, NAD-dependent protein deacetylase sirtuin-2 (Homo sapiens) (UniProt Q8IXJ6); test: Inhibition of full length human SIRT2 expressed in Escherichia coli BL21 (DE3) cells at 100 uM using fluorogenic 7-amino-4-methylcoumarin (AMC)-labeled peptide by fluorescence assay
T3 sequence (whole entry): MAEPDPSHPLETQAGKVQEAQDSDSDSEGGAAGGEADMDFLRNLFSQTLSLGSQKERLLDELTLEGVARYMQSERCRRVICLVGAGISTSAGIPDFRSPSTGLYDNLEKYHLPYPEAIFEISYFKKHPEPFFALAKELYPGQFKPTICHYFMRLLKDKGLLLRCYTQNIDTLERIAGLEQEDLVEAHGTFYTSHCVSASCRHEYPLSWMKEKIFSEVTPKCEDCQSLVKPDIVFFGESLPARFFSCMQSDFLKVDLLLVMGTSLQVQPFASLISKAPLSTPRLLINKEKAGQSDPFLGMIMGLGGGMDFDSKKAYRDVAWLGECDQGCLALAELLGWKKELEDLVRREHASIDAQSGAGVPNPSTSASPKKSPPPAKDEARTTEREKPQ

[4] = target: T4, NAD-dependent protein deacetylase sirtuin-2 (Homo sapiens, UniProt Q8IXJ6); test: Inhibition of full length human SIRT2 expressed in Escherichia coli BL21 (DE3) cells using fluorogenic 7-amino-4-methylcoumarin (AMC)-labeled peptide by fluorescence assay
T4 sequence (Q8IXJ6 whole entry): T3 sequence (whole entry)

[5] = target: T5, NAD-dependent protein deacetylase sirtuin-3, mitochondrial (Homo sapiens, UniProt Q9NTG7); test: biochemical
T5 sequence (Q9NTG7 whole entry): T2 sequence (whole entry)
Description: Inhibition of catalytically active human SIRT3 (102 to 399 amino acids) expressed in Escherichia coli BL21 (DE3) cells using fluorogenic 7-amino-4-methylcoumarin (AMC)-labeled peptide by fluorescence assay

[6] = target: T6, NAD-dependent protein deacetylase sirtuin-1 (Homo sapiens, UniProt Q96EB6); test: biochemical; format: cell-based, BL21-DE3
T6 sequence (Q96EB6 whole entry): T1 sequence (whole entry)
Description: Inhibition of full length human SIRT1 expressed in Escherichia coli BL21 (DE3) cells using fluorogenic 7-amino-4-methylcoumarin (AMC)-labeled peptide by fluorescence assay

inhibition [1] [%]	inhibition [2] [%]	inhibition [3] [%]	IC50 [4] [µM]	IC50 [5] [µM]	IC50 [6] [µM]	SMILES
< 10	47	15	–	–	–	NC(=O)c1ccc(Nc2ccc3ccccc3c2)cc1
31	44	61	–	–	–	NC(=O)c1ccc(Oc2ccc3ccccc3c2)nc1
< 10	22	< 10	–	–	–	NC(=O)c1ccc(Nc2cccc3ccccc23)cc1
< 10	21	< 10	–	–	–	O=C(Nc1cccc2cc(S(=O)(=O)O)ccc12)c1ccccc1
< 10	< 10	65	–	–	–	NC(=O)c1cccc(Nc2ccc3ccccc3c2)c1
< 10	< 10	24	–	–	–	NC(=O)c1ccc(Sc2cccc3ccccc23)cc1
< 10	< 10	46	–	–	–	NC(=O)c1cccc(Nc2cccc3ccccc23)c1
< 10	< 10	20	–	–	–	NC(=O)c1ccc(Nc2ccc3ccccc3c2)nc1
< 10	10	27	–	–	–	NC(=O)c1ccc(Oc2cccc3ccccc23)cc1
31	42	73	–	–	–	NC(=O)c1ccc(Sc2ccc3ccccc3c2)nc1
17	15	< 10	–	–	–	O=C(Nc1cccc2cccc(S(=O)(=O)O)c12)c1ccccc1
< 10	39	33	–	–	–	NC(=O)c1ccc(Oc2cccc3ccccc23)nc1
19	38	41	–	–	–	NC(=O)c1ccc(Nc2cccc3ccccc23)nc1
20	< 10	41	–	–	–	NC(=O)c1ccc(Sc2ccc3ccccc3c2)cc1
< 10	< 10	16	–	–	–	NC(=O)c1ccc(Oc2ccc3ccccc3c2)cc1
40	42	47	–	–	–	NC(=O)c1ccc(Sc2cccc3ccccc23)nc1
35	35	66	–	–	–	NC(=O)c1cccc(Oc2cccc3ccccc23)c1
< 10	< 10	< 10	–	–	–	Nc1cccc(C(=O)Nc2cccc3cc(S(=O)(=O)O)ccc23)c1
–	–	–	9.7	9	40.9	NC(=O)c1cncc(Nc2cccc3ccccc23)c1
47	49	84	–	–	–	NC(=O)c1cccc(Oc2ccc3ccccc3c2)c1
–	–	–	0.436	–	22.4	NC(=O)c1cncc(Oc2ccc3c(NC(=O)c4ccccc4)cccc3c2)c1
–	–	–	9.8	–	30.3	NC(=O)c1cncc(Sc2cccc3ccccc23)c1
–	–	–	7.57	–	4.89	NC(=O)c1cncc(Oc2cccc3ccccc23)c1
–	–	–	4.3	–	33.6	NC(=O)c1cncc(Nc2ccc3ccccc3c2)c1

The next lines start with the compound.

SMILES	inhibition [1] [%]	inhibition [2] [%]	inhibition [3] [%]	IC50 [4] [µM]	IC50 [5] [µM]	IC50 [6] [µM]
Nc1cccc(C(=O)Nc2ccc(S(=O)(=O)O)c3ccccc23)c1	< 10	< 10	< 10	–	–	–
Cc1ccc(C(=O)Nc2cccc3cccc(S(=O)(=O)O)c23)cc1	< 10	10	< 10	–	–	–
Cc1ccc(C(=O)Nc2cccc3cc(S(=O)(=O)O)ccc23)cc1	19	22	24	–	–	–
Nc1cccc(C(=O)Nc2cccc3cccc(S(=O)(=O)O)c23)c1	12	< 10	< 10	–	–	–
O=C(Nc1ccc(S(=O)(=O)O)c2ccccc12)c1cccc([N+](=O)[O-])c1	< 10	23	29	–	–	–
Cc1ccc(C(=O)Nc2cccc3cccc(S(=O)(=O)O)c23)cc1N	12	16	< 10	–	–	–
Cc1ccc(C(=O)Nc2cccc3cc(S(=O)(=O)O)ccc23)cc1[N+](=O)[O-]	19	< 10	38	–	–	–
Cc1ccc(C(=O)Nc2cccc3cc(S(=O)(=O)O)ccc23)cc1N	14	< 10	13	–	–	–
O=C(Nc1cccc2cc(S(=O)(=O)O)ccc12)c1cccc([N+](=O)[O-])c1	13	< 10	22	–	–	–
NC(=O)c1cncc(Oc2ccc3ccccc3c2)c1	–	–	–	6.29	2.14	13.5
Cc1ccc(C(=O)Nc2cccc3c(Oc4cncc(C(N)=O)c4)cccc23)cc1	–	–	–	0.0774	–	18.7
O=C(Nc1ccc(S(=O)(=O)O)c2ccccc12)c1ccccc1	< 10	25	10	–	–	–
Cc1ccc(C(=O)Nc2cccc3c(Oc4cncc(C(N)=O)c4)cccc23)cc1[N+](=O)[O-]	–	–	–	0.978	–	100
NC(=O)c1cncc(Oc2cccc3c(NC(=O)c4ccncc4)cccc23)c1	–	–	–	0.955	–	15.4
NC(=O)c1cncc(Sc2ccc3ccccc3c2)c1	–	–	–	12.1	–	26.9
NC(=O)c1cncc(Oc2cccc3c(NC(=O)c4cccnc4)cccc23)c1	–	–	–	0.558	–	70.7
NC(=O)c1cncc(Oc2cccc3c(NC(=O)c4cccc([N+](=O)[O-])c4)cccc23)c1	–	–	–	0.434	–	64
Cc1ccc(C(=O)Nc2cccc3cc(Oc4cncc(C(N)=O)c4)ccc23)cc1	–	–	–	0.489	–	3.82
NC(=O)c1cncc(Oc2ccc3c(NC(=O)c4cccc([N+](=O)[O-])c4)cccc3c2)c1	–	–	–	0.811	–	11.7
Cc1ccc(C(=O)Nc2ccc(S(=O)(=O)O)c3ccccc23)cc1N	11	< 10	13	–	–	–
Cc1ccc(C(=O)Nc2cccc3cccc(S(=O)(=O)O)c23)cc1[N+](=O)[O-]	26	< 10	< 10	–	–	–
Cc1ccc(C(=O)Nc2cccc3cc(Oc4cncc(C(N)=O)c4)ccc23)cc1[N+](=O)[O-]	–	–	–	0.869	4.37	0.788
N#C/C(=C\c1ccc(-c2cc(Cl)ccc2Cl)o1)C(=O)Nc1cccc2ncccc12	–	–	–	–	–	135
Cc1ccc(C(=O)Nc2ccc(S(=O)(=O)O)c3ccccc23)cc1[N+](=O)[O-]	23	22	25	–	–	–
O=C(Nc1cccc2cccc(S(=O)(=O)O)c12)c1cccc([N+](=O)[O-])c1	< 10	< 10	< 10	–	–	–
Cc1ccc(C(=O)Nc2ccc(S(=O)(=O)O)c3ccccc23)cc1	22	25	17	–	–	–
